Experimental data taken from patent publication EP4692071A1, “PHOTOCHROMIC COMPOUND, NAPHTHOL DERIVATIVE, CURABLE COMPOSITION, OPTICAL ARTICLE, LENS, AND EYEGLASS” (TOKUYAMA CORPORATION, priority 2023, dated 2024).
Several values for one entry are separate records, joined by “and”; a condition that tells them apart may be missing. Equal entries are not always repeated.

Key:
Format in all cases: physicochemical
[1] = 23°C color optical density (A23): absorbancy difference ε(240)-ε(0) after 240 s light irradiation at 23°C; conditions: 240 s irradiation
Procedure: (§1) • [1] Maximum Absorption Wavelength (λmax): The maximum absorption wavelength after color development, measured using a spectrophotometer (instantaneous multichannel photodetector MCPD3000) manufactured by Otsuka Electronics Co., Ltd. was used as an indicator for the color tone during the color development. • [2] 23°C Color Optical Density (A23): A difference between an absorbancy measured after light irradiation at 23°C for 240 seconds {ε(240)} and an absorbancy without light irradiation ε(0) at the maximum absorption wavelength was used as an indicator for the color optical density. […] 35°C Color Optical Density (A35): A difference between an absorbancy measured after light irradiation at 35°C for 240 seconds {ε(240)} and an absorbancy without light irradiation ε(0) at the first and second absorption wavelengths was used as an indicator for the color optical density. […] 23°C color fading half-life [τ1/2 (sec.)]: A time required for the absorbancy of the sample at the maximum absorption wavelength to decrease to 1/2 of {ε(240)-ε(0)} when the light irradiation is terminated after the light irradiation at 23°C for 240 seconds, was used as an indicator for the color fading speed. The shorter this time, the higher the color fading speed. • [6] Residual rate (A90/A0×100): The obtained photochromic plastic lens was subjected to accelerated deterioration using a xenon weather meter X25 manufactured by Suga Test Instruments Co., Ltd. for 90 hours. Subsequently, the color optical density was evaluated before and after the test, then a color optical density before the test (A0) and a color optical density after the test (A90) were measured, and a ratio (A90/A0) was defined as a residual rate. The residual rate was used as an indicator for a color developing durability. The higher the residual rate, the higher the color developing durability.

[2] = High-temperature color development rate (A35/A23×100), temperature dependency
Procedure: as §1

[3] = Residual rate (A90/A0×100) after 90 h accelerated deterioration in xenon weather meter X25, color developing durability; conditions: xenon weather meter 90 hours
Procedure: as §1

[4] = 35°C color optical density (A35): absorbancy difference ε(240)-ε(0) after 240 s light irradiation at 35°C; conditions: 240 s irradiation
Procedure: as §1

[5] = Maximum absorption wavelength (λmax) after color development, spectrophotometer MCPD3000
Procedure: as §1

[6] = cured product by kneading method, 1 mm
[7] = photochromic laminate by coating method, at the maximum absorption wavelength
[8] = photochromic laminate by coating method
[9] = photochromic cured product by kneading method, 1 mm thick thiourethane, 0.106 mmol per 100 g monomers
[10] = photochromic laminate by coating method, 40 µm photochromic layer on thiourethane lens, 0.25 mmol compound per 100 g monomers
[11] = binder sheet (binder method), urethaneurea resin photochromic layer between polycarbonate sheets, 0.25 mmol per 100 parts by mass resin

SMILES | A23 (-) [1, 6] | A23 (-) [1, 7] | A35/A23 *100 (%) [2, 6] | A35/A23 *100 (%) [2, 8] | Residual rate (%) [3, 6] | Residual rate (%) [3, 8] | A35 (-) [4, 6] | A35 (-) [4, 8] | Maximum absorption wavelength (nm) [5, 9] | Maximum absorption wavelength (nm) [5, 10] | A23 (-) ([1]; binder sheet (binder method)) | A35/A23 *100 (%) ([2]; binder sheet (binder method)) | Residual rate (%) ([3]; binder sheet (binder method)) | A35 (-) ([4]; binder sheet (binder method)) | Maximum absorption wavelength (nm) [5, 11]
COc1ccc(C2(c3ccc(OC)cc3)C=Cc3c4c(c5cc(N6CCOc7ccccc76)c(OC)cc5c3O2)-c2ccccc2C4(C)C)cc1 [Example 19 Formula (83)] | 1.37 - | 1.34 - | 67% | 67% | 83% | 77% | 0.91 - | 0.90 - | 519 nm | 515 nm | 1.36 - | 67% | 91% | 0.91 - | 515 nm
CCCCC1(CCCC)c2cc([Si](C)(C)C(C)(C)C)ccc2-c2c1c1c(c3cc(OC)c(N(CC)c4ccccc4)cc23)OC(c2ccc(OC)cc2)(c2ccc(OCCC)cc2)C=C1 (stereo not shown) [Example 46 Formula (99)] | – | 1.29 - | – | 70% | – | 78% | – | 0.90 - | – | 504 nm | – | – | – | – | –
CCCCCCC1(CCCCCC)c2cc(Oc3ccccc3)ccc2-c2c1c1c(c3cc(OC)c(N(c4ccccc4)c4ccc(C)cc4)cc23)OC(c2ccc(OC)cc2)(c2ccc(OCCCC)cc2)C=C1 (stereo not shown) [Example 52 Formula (119)] | – | 1.82 - | – | 74% | – | 79% | – | 1.34 - | – | 518 nm | – | – | – | – | –
COCCOCCOCCC1(CCOCCOCCOC)c2cc(-c3ccc(OC(C)C)cc3)ccc2-c2c1c1c(c3cc(OC)c(N(C)c4ccc(C(F)(F)F)cc4)cc23)OC(c2ccc(OC)cc2)(c2ccc(OC)cc2)C=C1 [Example 53 Formula (121)] | – | 0.75 - and 0.82 - | – | 66% | – | 76% | – | 0.49 - and 0.54 - | – | 457 nm and 592 nm | – | – | – | – | –
CCCCCCCCC1(CCCCCCCC)c2cc([Si](c3ccccc3)(c3ccccc3)c3ccccc3)ccc2-c2c1c1c(c3cc(OC)c(N(c4ccccc4)c4ccccc4)cc23)OC(c2ccc(OCCC)cc2)(c2ccc(OCCC)cc2)C=C1 [Example 56 Formula (128)] | – | 1.80 - | – | 69% | – | 81% | – | 1.24 - | – | 508 nm | – | – | – | – | –

Next, values leading:

A23 (-) [1, 6] | A23 (-) [1, 7] | A35/A23 *100 (%) [2, 6] | A35/A23 *100 (%) [2, 8] | Residual rate (%) [3, 6] | Residual rate (%) [3, 8] | A35 (-) [4, 6] | A35 (-) [4, 8] | Maximum absorption wavelength (nm) [5, 9] | Maximum absorption wavelength (nm) [5, 10] | A23 (-) ([1]; binder sheet (binder method)) | A35/A23 *100 (%) ([2]; binder sheet (binder method)) | Residual rate (%) ([3]; binder sheet (binder method)) | A35 (-) ([4]; binder sheet (binder method)) | Maximum absorption wavelength (nm) [5, 11] | SMILES
1.22 - | 1.20 - | 63% | 62% | 81% | 75% | 0.76 - | 0.74 - | 527 nm | 523 nm | – | – | – | – | – | CCCCCCOc1ccc(C2(c3ccc(OC)cc3)C=Cc3c4c(c5cc(N(c6ccc(C)cc6)c6ccc(OC)cc6)c(OC)cc5c3O2)-c2ccccc2C42CC(C)(C)CC(C)(C)C2)cc1 (stereo not shown) [Example 15 Formula (75)]
1.09 - | 1.06 - | 69% | 67% | 84% | 78% | 0.75 - | 0.71 - | 562 nm | 558 nm | – | – | – | – | – | CCCOc1ccc(C2(c3ccc(OC)cc3)C=Cc3c4c(c5cc(N(C)c6ccccc6)c(C)cc5c3O2)-c2ccc(C)cc2C4(CCCCOC)CCCCOC)cc1 (stereo not shown) [Example 17 Formula (79)]
1.24 - | 1.22 - | 70% | 70% | 85% | 81% | 0.87 - | 0.85 - | 507 nm | 503 nm | 1.23 - | 70% | 93% | 0.86 - | 503 nm | CCCOc1ccc(C2(c3ccc(OCCC)cc3)C=Cc3c4c(c5cc(N(C)c6ccc(C)cc6)c(OC)cc5c3O2)-c2ccccc2C4(CCCCOC)CCCCOC)cc1 [Example 20 Formula (85)]
– | 1.21 - | – | 71% | – | 80% | – | 0.86 - | – | 506 nm | 1.24 - | 71% | 92% | 0.88 - | 506 nm | CCCCOc1ccc(C2(c3ccc(OC)cc3)C=Cc3c4c(c5cc(N(C)c6ccccc6)c(OC)cc5c3O2)-c2ccc(-c3ccc(C(C)(C)C)cc3)cc2C4(CC)CC)cc1 (stereo not shown) [Example 45 Formula (94)]
– | 1.25 - | – | 66% | – | 73% | – | 0.83 - | – | 521 nm | 1.27 - | 66% | 88% | 0.84 - | 521 nm | COc1ccc(C2(c3ccc(N4CCOCC4)cc3)C=Cc3c4c(c5cc(N6CCOc7ccccc76)c(C)cc5c3O2)-c2ccc(OC)cc2C4(CCCCF)CCCCF)cc1 (stereo not shown) [Example 47 Formula (102)]
– | 1.36 - | – | 65% | – | 77% | – | 0.88 - | – | 513 nm | 1.39 - | 65% | 93% | 0.90 - | 513 nm | CCCOc1ccc(C2(c3ccc(OCCC)cc3)C=Cc3c4c(c5cc(N6CCOc7cc(C)ccc76)c(OC)cc5c3O2)-c2ccc(-c3ccc(C(F)(F)F)cc3)cc2C4(CCOC)CCOC)cc1 [Example 48 Formula (106)]
